SMILES strings stand for the structures.

The test deals with Mycobacterium tuberculosis. As to the kind of experiment: Antitubercular activity against Mycobacterium tuberculosis assessed as growth inhibition […]. As to conditions: read-out: log(1/IC50) (converted). In kind it is functional, organism-based.

As for `CC(C)(C)c1ccc(C(=O)N2CCN(c3cccc(C(F)(F)F)c3)CC2)cc1`, the IC50 was 100 µM.

Take `O=C(c1ccccc1F)N1CCC(Cc2ccccc2)CC1`: the IC50 was 14.1 µM.

`Cc1ccc(C(=O)N2CCN(c3cccc(C(F)(F)F)c3)CC2)cc1`: the IC50 is 6.31 µM.

For the compound `Cc1ccc(C(=O)N2CCN(C(c3ccc(F)cc3)c3ccc(F)cc3)CC2)cc1`, the IC50 was 1.91 µM.

As for `O=C(c1cccc(Cl)c1)N1CCC(Cc2ccccc2)CC1`, the IC50 was 7.76 µM.

For the compound `CC(C)(C)c1ccc(C(=O)N2CCN(c3cccc(Cl)c3)CC2)cc1`, the IC50 was 100 µM.

As to `Cc1ccc(C(=O)N2CCN(c3ccccc3)CC2)cc1`, the IC50 was 16.6 µM.

Turning to `O=C(c1ccccc1F)N1CCN(c2cccc(Cl)c2)CC1`, the IC50 is 13.8 µM.

On to `Cc1cccc(C(=O)N2CCN(c3cccc(Cl)c3)CC2)c1`, for which the IC50 is 9.33 µM.

In the case of `O=C(c1ccc(Cl)c(Cl)c1)N1CCN(c2ccccc2)CC1`, the IC50 is 17.8 µM.

As to `O=C(c1ccccc1)N1CCN(c2ccccc2)CC1`, the IC50 is 38.9 µM.

As to `Cc1ccc(N2CCN(C(=O)c3ccc(C(C)(C)C)cc3)CC2)cc1Cl`, the IC50 is 100 µM.

Regarding `Cc1ccc(C(=O)N2CCC(Cc3ccccc3)CC2)cc1`, the IC50 was 5.13 µM.

As to `O=C(c1ccc(F)cc1)N1CCN(c2cccc(Cl)c2)CC1`, the IC50 is 9.77 µM.

Regarding `O=C(c1ccc(Cl)c(Cl)c1)N1CCN(c2cccc(Cl)c2)CC1`, the IC50 was 6.03 µM.

As for `O=C(c1ccccc1)N1CCN(Cc2ccccc2)CC1`, the IC50 was 31.6 µM.

As to `Cc1ccc(C(=O)N2CCN(c3cccc(C(F)(F)F)c3)CC2)cc1C`, the IC50 is 1.86 µM.

Take `O=C(c1cccc(Cl)c1)N1CCN(c2cccc(Cl)c2)CC1`: the IC50 is 6.76 µM.

Consider `O=C(c1ccc2[nH]ccc2c1)N1CCN(C(c2ccc(F)cc2)c2ccc(F)cc2)CC1`, for which the IC50 is 1.05 µM.

Take `Cc1cccc(C(=O)N2CCN(c3ccc([N+](=O)[O-])cc3)CC2)c1`: the IC50 was 15.5 µM.

With `O=C(c1ccccc1)N1CCN(C(c2ccc(F)cc2)c2ccc(F)cc2)CC1`, the IC50 is 2.04 µM.

In the case of `Cc1ccc(C(=O)N2CCN(c3cccc(Cl)c3)CC2)cc1`, the IC50 is 3.09 µM.

As to `CC(C)c1ccc(C(=O)N2CCN(c3cccc(Cl)c3)CC2)cc1`, the IC50 was 100 µM.

The record behind these values is ChEMBL document CHEMBL3045931, “QSAR studies of antituberculosis drug using three-dimensional structure descriptors” (Med Chem Res, 2013).
